Data reported in ChEMBL document CHEMBL6096662, “Discovery and structure-activity relationship study of nicotinamide derivatives as DNA demethylase ALKBH2 inhibitors” (Eur J Med Chem, 2025).
pIC50, pKd: −log10 of the molar value. Blank lines part the entries; values can stand above or below the molecule they belong to.

Experiments:
[1] = biological target: T1, DNA oxidative demethylase ALKBH2 (Homo sapiens, UniProt Q6NS38); assay: Inhibition of ALKBH2 (56 to 261 residues)(unknown origin) extracted from Escherichia coli BL21 (DE3) using 5'-GAAGACCT(1meA)GGCGTCC-3'/5'- CTGGGACGCCTAGGTCTTCACTG-3' as substrate incubated for 30 mins by FP assay
T1 sequence (Q6NS38 whole entry): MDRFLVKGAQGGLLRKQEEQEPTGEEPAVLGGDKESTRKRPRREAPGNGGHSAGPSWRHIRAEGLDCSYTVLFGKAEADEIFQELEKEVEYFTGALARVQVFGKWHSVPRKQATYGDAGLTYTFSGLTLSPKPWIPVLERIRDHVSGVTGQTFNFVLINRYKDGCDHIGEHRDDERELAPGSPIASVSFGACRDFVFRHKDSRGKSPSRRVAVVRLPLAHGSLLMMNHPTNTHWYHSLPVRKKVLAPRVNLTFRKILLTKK

U-87 MG = assay: Anti-viability activity against human U87 cells by MTT assay; assay type: functional, cell-based, U-87MG ATCC
[2] = biological target: T1, DNA oxidative demethylase ALKBH2; assay: Binding affinity to ALKBH2 (56 to 261 residues)(unknown origin) assessed as dissociation constant by ITC assay
RNA demethylase ALKBH5 = RNA demethylase ALKBH5 (Homo sapiens, UniProt Q6P6C2); assay: Inhibition of demethylase activity of ALKBH5 (66 to 292 residues)(unknown origin) extracted from Escherichia coli BL21 (DE3) using 6meA dsDNA as substrate incubated for 30 mins by methylation-sensitive restriction enzyme digestion assay
[3] = biological target: T1, DNA oxidative demethylase ALKBH2; assay: Inhibition of demethylase activity of ALKBH2 (56 to 261 residues)(unknown origin) extracted from Escherichia coli BL21 (DE3) using 1meA dsDNA as substrate incubated for 30 mins in presence of alpha-KG by methylation-sensitive restriction enzyme digestion assay
[4] = biological target: Alpha-ketoglutarate-dependent dioxygenase FTO (Homo sapiens, UniProt Q9C0B1); assay: Inhibition of demethylase activity of FTO (35 to 505 residues)(unknown origin) extracted from Escherichia coli BL21 (DE3) using 6meA dsDNA as substrate incubated for 30 mins by methylation-sensitive restriction enzyme digestion assay
[5] = Inhibition of demethylase activity of ALKBH1 (19 to 369 residues)(unknown origin) extracted from Escherichia coli BL21 (DE3) using 6meA unpaired dsDNA as substrate incubated for 30 mins by methylation-sensitive restriction enzyme digestion assay; design: species or system Homo sapiens
[6] = biological target: T1, DNA oxidative demethylase ALKBH2; assay: Inhibition of ALKBH2 (56 to 261 residues)(unknown origin) extracted from Escherichia coli BL21 (DE3) using 5meC DNA as substrate by FP assay
[7] = biological target: T2, Alpha-ketoglutarate-dependent dioxygenase alkB homolog 3 (Homo sapiens, UniProt Q96Q83); assay: Inhibition of demethylase activity of ALKBH3 (70 to 286 residues)(unknown origin) extracted from Escherichia coli BL21 (DE3) using 1meA dsDNA as substrate incubated for 30 mins by methylation-sensitive restriction enzyme digestion assay
T2 sequence (Q96Q83 whole entry): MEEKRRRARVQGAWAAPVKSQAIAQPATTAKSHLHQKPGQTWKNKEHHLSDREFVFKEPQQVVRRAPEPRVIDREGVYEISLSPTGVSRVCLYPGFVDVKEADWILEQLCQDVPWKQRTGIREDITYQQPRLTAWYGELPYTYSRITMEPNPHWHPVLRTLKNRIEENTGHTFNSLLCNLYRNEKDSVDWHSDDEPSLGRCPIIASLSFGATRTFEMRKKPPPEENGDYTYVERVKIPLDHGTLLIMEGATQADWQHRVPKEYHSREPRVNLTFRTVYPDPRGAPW

Sequence of Alpha-ketoglutarate-dependent dioxygenase FTO (Q9C0B1 whole entry, the tested form may be a part): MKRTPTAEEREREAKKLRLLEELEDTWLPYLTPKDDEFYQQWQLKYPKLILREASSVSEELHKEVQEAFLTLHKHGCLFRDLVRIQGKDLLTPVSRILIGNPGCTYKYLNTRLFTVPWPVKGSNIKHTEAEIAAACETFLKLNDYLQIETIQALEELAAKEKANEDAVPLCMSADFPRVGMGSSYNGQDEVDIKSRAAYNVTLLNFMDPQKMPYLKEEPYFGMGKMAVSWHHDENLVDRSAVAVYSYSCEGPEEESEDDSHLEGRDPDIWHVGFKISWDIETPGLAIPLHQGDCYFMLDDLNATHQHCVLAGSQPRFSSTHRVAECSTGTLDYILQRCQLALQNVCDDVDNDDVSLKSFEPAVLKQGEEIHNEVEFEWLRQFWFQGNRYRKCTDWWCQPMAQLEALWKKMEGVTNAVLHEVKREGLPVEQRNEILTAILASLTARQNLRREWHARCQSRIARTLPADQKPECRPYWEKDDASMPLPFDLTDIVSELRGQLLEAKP
Sequence of RNA demethylase ALKBH5 (Q6P6C2 whole entry, the tested form may be a part): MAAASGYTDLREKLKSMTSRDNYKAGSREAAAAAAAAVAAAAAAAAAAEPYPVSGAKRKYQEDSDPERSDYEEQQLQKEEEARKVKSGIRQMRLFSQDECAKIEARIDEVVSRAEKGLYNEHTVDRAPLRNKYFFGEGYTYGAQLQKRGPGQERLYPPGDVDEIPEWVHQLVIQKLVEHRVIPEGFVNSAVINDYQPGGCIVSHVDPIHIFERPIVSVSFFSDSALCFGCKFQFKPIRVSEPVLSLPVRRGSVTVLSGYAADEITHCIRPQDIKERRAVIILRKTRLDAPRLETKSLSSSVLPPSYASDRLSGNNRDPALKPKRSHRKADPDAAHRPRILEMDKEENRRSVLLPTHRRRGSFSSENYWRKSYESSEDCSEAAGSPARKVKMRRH

pIC50 [1]: 7.14
Structure (SMILES): O=C(O)c1cnn(-c2ccc(C(=O)N3CCCC(c4ccccc4)C3)cn2)c1 (stereo not drawn)

pIC50 [1]: 6.42
Structure (SMILES): COC1CCN(C(=O)c2ccc(-n3cc(C(=O)O)cn3)nc2)C1 (stereo not drawn)

pIC50 (U-87 MG): 5.34
Structure (SMILES): CCOC(=O)c1cnn(-c2ccc(C(=O)NC(c3ccccc3)C(C)(C)C)cn2)c1 (stereo not drawn)

pIC50 [1]: 4.06
Structure (SMILES): O=C(O)c1cnn(-c2ccccc2)c1

pKd [2]: 6.65
pIC50 (RNA demethylase ALKBH5): < 3.70
pIC50 [3]: 5.83
pIC50 (U-87 MG): 3.99
pIC50 [4]: < 3.70
pIC50 [5]: < 3.70
pIC50 [1]: 7.51
pIC50 [6]: 7.33
pIC50 [7]: < 3.70
Structure (SMILES): CC(C)(C)C(NC(=O)c1ccc(-n2cc(C(=O)O)cn2)nc1)c1ccccc1 (stereo not drawn)
